Measured values reported in patent US20140116103A1, “FOLIARLY APPLICABLE SILICON NUTRITION COMPOSITIONS & METHODS” (priority 2008, published 2014).

Key:
Bipolaris oryzae = type: in vivo, Bipolaris oryzae on rice; conditions: A, B, C, F compared to control, D compared to A
Description: The trial was arranged in a completely randomized design with five replications. Each experimental unit consisted of one plastic container with 5 liters of nutrient solution and four rice plants. The experiment was repeated once. Compositions A-F were applied to rice leaves as foliar sprays 24 hours before inoculation with the brown spot pathogen Bipolaris oryzae. Solutions of compositions A-D were prepared at 2% concentration. The fungicide (composition F) was prepared at 1.5 ml/liter concentration. Plants at the fifth leaf tiller growth stage were sprayed using a DeVilbiss No. 15 atomizer. The base of the plants was covered during spraying to prevent run-off of the sprayed materials into the nutrient solution.
A pathogenic isolate of B. oryzae (CNPAF-HO 82), obtained from symptomatic rice plants, was used to inoculate the plants. A conidial suspension of B. oryzae (5×10^3 conidia/ml) was applied as a fine mist to the adaxial leaf blades of each plant until runoff using a VL Airbrush atomizer (Paasche Airbrush Co., Chicago, Ill.). Immediately after inoculation, plants were transferred to a mist chamber at 25±2° C. with an initial 24 h dark period. […]
Brown spot severity on leaves of each plant was scored at 24, 48, 72 and 96 hours after inoculation using an International Rice Research Institute (IRRI) scale based on the percentage of diseased leaf area.

[1] = generally accepted limit; cited from earlier work

| Structure (SMILES) | necrotic lesions on leaves (number and size) (Bipolaris oryzae) | limit of solubility in water [1] |
| --- | --- | --- |
| CC1COC(Cn2cncn2)(c2ccc(Oc3ccc(Cl)cc3)cc2Cl)O1 (centres unmarked) [Composition F, diphenoconazole] | complete absence of lesions | – |
| O[Si](O)(O)O [monosilicic acid] | – | about 2 mM |
